Laboratory results from PubChem BioAssay (NCI).
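Five compound concentrations were applied to cells in 96-well plates for 48 hours; endpoints were derived by simple linear interpolation of the resulting dose-response curve. At the GI50, growth is halved. TGI denotes the concentration required for complete inhibition of growth.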

How the values were obtained:
Assay in all cases: NCI tumour cell line growth inhibition, 48 h
[1] = tested on: OVCAR-8 ovarian
[2] = tested on: UACC-62 melanoma
[3] = tested on: SK-OV-3 ovarian
[4] = tested on: SNB-75 CNS
[5] = tested on: KM12 colon
[6] = tested on: MALME-3M melanoma
[7] = tested on: EKVX NSCLC
[8] = tested on: SK-MEL-2 melanoma
[9] = tested on: MDA-MB-435
[10] = tested on: PC-3 prostate

Row | Compound | TGI [1] | TGI [2] | TGI [3] | TGI [4] | TGI [5] | TGI [6] | TGI [7] | TGI [8] | GI50 [1] | GI50 [2] | GI50 [3] | GI50 [9] | TGI [9] | GI50 [4] | GI50 [10] | TGI [10] | GI50 [7] | GI50 [8] | GI50 [5] | GI50 [6]
1 | O[C@H]1[C@H]2[C@H](O)CCCN2C[C@H]1O | > 100 µM | > 100 µM | > 100 µM | > 100 µM | > 100 µM | > 100 µM | > 100 µM | > 100 µM | – | – | – | – | – | – | – | – | – | – | – | –
2 | C/C=C/CP(=O)(c1ccccc1)c1ccccc1 | > 100 µM | > 100 µM | > 100 µM | > 100 µM | > 100 µM | > 100 µM | > 100 µM | > 100 µM | – | – | – | – | – | – | – | – | – | – | – | –
3 | N#Cc1c(N)nc(N2CCOCC2)c(C#N)c1-c1cccc(O)c1 | > 100 µM | > 100 µM | > 100 µM | 70.6 µM | – | – | > 100 µM | > 100 µM | > 100 µM | 40.8 µM | 70.9 µM | > 100 µM | > 100 µM | 17.2 µM | 46.9 µM | > 100 µM | 73.5 µM | > 100 µM | – | –
4 | COc1cc(N)ccc1Nc1c2ccccc2nc2ccccc12 | 36 µM | 31.2 µM | 29.4 µM | 31.2 µM | 20.5 µM | 35.1 µM | – | 44.9 µM | 10.2 µM | 12.9 µM | 12.5 µM | 17 µM | 33.2 µM | 10.8 µM | 10.6 µM | 29.6 µM | – | 23.3 µM | 7.56 µM | 14.6 µM
5 | CCC(=O)Nc1ccc2c(c1)CN1C(=O)c3ccccc3C1=N2 | > 100 µM | > 100 µM | > 100 µM | > 100 µM | > 100 µM | > 100 µM | – | > 100 µM | > 100 µM | > 100 µM | > 100 µM | > 100 µM | > 100 µM | > 100 µM | > 100 µM | > 100 µM | – | > 100 µM | > 100 µM | > 100 µM
6 | Cc1cc(Nc2nc(N3CCOCC3)nc3ccccc23)n[nH]1 | > 100 µM | – | 40.9 µM | 7.49 µM | > 100 µM | > 100 µM | – | > 100 µM | 21.1 µM | – | 3.69 µM | 4.03 µM | > 100 µM | 1.55 µM | – | – | – | 5.2 µM | 0.4 µM | 44.2 µM
7 | NC1=NN(c2ccccc2)C(=O)C1C(=O)C(=O)Nc1cccc(C(F)(F)F)c1 (stereo not drawn) | > 100 µM | > 100 µM | > 100 µM | – | > 100 µM | > 100 µM | > 100 µM | > 100 µM | – | – | – | – | – | – | – | – | – | – | – | –
8 | C/C(=N\[N+](C)(C)C)C(c1ccccc1)C1(c2ccccc2)C(c2ccccc2)=C1c1ccccc1 (stereo not drawn) | > 100 µM | > 100 µM | > 100 µM | – | > 100 µM | > 100 µM | > 100 µM | > 100 µM | – | – | – | – | – | – | – | – | – | – | – | –
9 | Cn1c(Cc2ccccc2)nc2cc3ccccc3cc21 | 63.2 µM | 43.5 µM | > 100 µM | – | > 100 µM | 50.6 µM | 52.5 µM | > 100 µM | 24.6 µM | 19.6 µM | 49.6 µM | 25.2 µM | 80 µM | – | 18.8 µM | 59.6 µM | 22.2 µM | 40.7 µM | 23.9 µM | 20.7 µM
10 | CC(=O)[CH-]C(C)=O.CC(=O)[CH-]C(C)=O.CC(=O)[CH-]C(C)=O.[Cl-].[Hf+4] | > 100 µM | > 100 µM | > 100 µM | – | > 100 µM | > 100 µM | > 100 µM | > 100 µM | > 100 µM | > 100 µM | > 100 µM | – | – | – | – | – | > 100 µM | > 100 µM | > 100 µM | > 100 µM
11 | CCOC(=O)CCc1c(C)c2ccc(O)cc2oc1=O | > 100 µM | > 100 µM | – | > 100 µM | – | > 100 µM | > 100 µM | > 100 µM | – | – | – | – | > 100 µM | – | – | > 100 µM | – | – | – | –
12 | CC1CC(C)C(=O)C(C(=O)CC2CC(=O)NC2=O)C1 (stereo not drawn) | > 100 µM | > 100 µM | > 100 µM | > 100 µM | > 100 µM | > 100 µM | > 100 µM | – | – | – | – | – | – | – | – | – | – | – | – | –
13 | N#Cc1c(SCc2ccccc2)nc2[nH]c(=S)[nH]c(=S)c2c1-c1ccco1 | > 100 µM | 46.6 µM | > 100 µM | > 100 µM | > 100 µM | – | > 100 µM | > 100 µM | 67.9 µM | 21.6 µM | > 100 µM | 59.5 µM | > 100 µM | > 100 µM | 0.448 µM | 20.5 µM | 17 µM | > 100 µM | 60.3 µM | –
14 | O=c1[nH]cnc2c1nnn2[C@@H]1O[C@H](CO)[C@@H](O)[C@H]1O | > 100 µM | 84.4 µM | > 100 µM | > 100 µM | > 100 µM | – | – | 70 µM | 0.843 µM | 5.75 µM | 0.868 µM | 6.26 µM | > 100 µM | 3.22 µM | 2.77 µM | > 100 µM | – | 5.4 µM | 7.85 µM | –
15 | O=C1NC(=O)[C@H]2C3C=CC([C@@H]12)[C@@H]1C(=O)NC(=O)[C@H]31 | > 100 µM | > 100 µM | – | – | – | > 100 µM | > 100 µM | > 100 µM | – | – | – | – | > 100 µM | – | – | > 100 µM | – | – | – | –
16 | O=C(Nc1cccc(-c2nc3ccccc3[nH]2)c1)c1cccc(NC(=O)c2ccco2)c1 | 5.14 µM | 3.5 µM | 4.42 µM | 2.91 µM | 5.61 µM | 4.34 µM | – | 16.9 µM | 2.18 µM | 1.79 µM | 2.35 µM | 1.67 µM | 3.04 µM | 1.55 µM | 2.25 µM | 5.48 µM | – | 5.33 µM | 2.27 µM | 2.11 µM
17 | O=C(Nc1ccc(N=Nc2ccccc2)cc1)Sc1ccccc1C(=O)O | > 100 µM | > 100 µM | – | > 100 µM | > 100 µM | – | > 100 µM | > 100 µM | – | – | – | – | – | – | – | – | – | – | – | –
